Counter-ions that a name gives are not always drawn.
Columns and labels:
[1] = test system: Angus steers; conditions: literature report; cited from earlier work
[2] = test system: fescue toxicosis; conditions: literature report; cited from earlier work
[3] = test system: monoclonal antibody 15F3.E5; assay: Cross-reactivity of the monoclonal antibody, competitive ELISA on PLL-lysergic acid coated plates; assay type: binding, mouse; conditions: for IC50: antibody diluted 1:50, pre-incubated 1 h with lysergic acid derivative, absorbance at 405 nm, read-out: Molar Concentration at 50% Maximum Absorbance; for cross reaction of 15F3.E5 with lysergic acid derivative: at the concentrations tested
Protocol: Mouse monoclonal antibody was diluted 1:50 in ELISA diluent. Working dilutions of various lysergic acid derivatives ranging between 1.78×10^-6 to 3.93×10^-15 M were made in 1:10 increments in PBS and 50 uL aliquots were pre-incubated for 1 h with 50 uL of diluted antibody at room temperature. To determine presence of unbound antibody, pre-incubated antibody/lysergic derivatives were transferred to ELISA plates pre-coated with PLL-lysergic acid for 2 h at room temperature. After washing, ELISA plates were treated with 1:500 dilution of rabbit derived antimouse antibody conjugated to alkaline phosphatase:ELISA diluent for 2 h at room temperature and washed. Fifty microliters of alkaline phosphate substrate was added to each well and the characteristic yellow color indicating binding of mouse antibody to the PLL-lysergic acid measured at 405 nm on a Titertek Multiskan Model MCC/340 plate reader.

SMILES | IC50 [3] | cross reaction of 15F3.E5 with lysergic acid derivative [3] | further results
CCN(CC)CCNC(=O)c1cc(Cl)c(N)cc1OC [metoclopramide] |  |  | effect on serum prolactin, weight gains and hair coats [1]: increased serum prolactin and weight gains
Cc1ncc(C[n+]2csc(CCO)c2C)c(N)n1 [thiamine] |  |  | effect on symptoms of fescue toxicosis [2]: partially alleviated symptoms
CN1C[C@H](C(=O)N[C@]2(C)O[C@@]3(O)[C@@H]4CCCN4C(=O)[C@H](Cc4ccccc4)N3C2=O)C=C2c3cccc4[nH]cc(c34)C[C@H]21 [Ergotamine tartrate] | 7.69 nM | cross reaction | 
CC(C)C1C(=O)N2CCCC2C2(O)OC(NC(=O)C3CC4c5cccc6[nH]cc(c56)CC4N(C)C3)(C(C)C)C(=O)N12 (stereo not shown) [dihydro-ergocornine] | > 1680 nM |  | 
CN1C[C@H](C(=O)O)C=C2c3cccc4[nH]cc(c34)C[C@H]21 [Lysergic Acid] | 0.0373 nM | cross reaction | 
CN1C[C@H](CO)C=C2c3cccc4[nH]cc(c34)C[C@H]21 [Lysergol] |  | cross reaction | 
CC(C)[C@H]1C(=O)N2CCC[C@H]2[C@]2(O)O[C@@](C)(NC(=O)[C@@H]3C=C4c5cccc6[nH]cc(c56)C[C@H]4N(C)C3)C(=O)N12 [Ergovaline] |  | cross reaction | 
CC(C)[C@@]1(NC(=O)[C@@H]2C[C@@H]3c4cccc5[nH]cc(c45)C[C@H]3N(C)C2)O[C@@]2(O)[C@@H]3CCCN3C(=O)[C@H](Cc3ccccc3)N2C1=O [dihydro-ergocristine] | > 1780 nM |  | 
CC(C)C[C@H]1C(=O)N2CCC[C@H]2[C@]2(O)O[C@](NC(=O)[C@@H]3C=C4c5cccc6[nH]c(Br)c(c56)C[C@H]4N(C)C3)(C(C)C)C(=O)N12 [2-bromo-a-ergocryptine] | > 1330 nM |  | 
C[C@@H](CO)NC(=O)[C@@H]1C=C2c3cccc4[nH]cc(c34)C[C@H]2N(C)C1 [Ergonovine] | 1.69 nM | cross reaction | 

Reference: US5718900A, “Vaccines and methods for preventing and treating Fescue toxicosis in herbivores” (priority 1994, dated 1998)
